Measurements published in ChEMBL document CHEMBL2010766, “Bivalent Ligands for the Serotonin 5-HT3 Receptor” (ACS Med Chem Lett, 2011).

Target: T1, 5-hydroxytryptamine receptor 3A (Rattus norvegicus, UniProt P35563)
T1 sequence (P35563 whole entry): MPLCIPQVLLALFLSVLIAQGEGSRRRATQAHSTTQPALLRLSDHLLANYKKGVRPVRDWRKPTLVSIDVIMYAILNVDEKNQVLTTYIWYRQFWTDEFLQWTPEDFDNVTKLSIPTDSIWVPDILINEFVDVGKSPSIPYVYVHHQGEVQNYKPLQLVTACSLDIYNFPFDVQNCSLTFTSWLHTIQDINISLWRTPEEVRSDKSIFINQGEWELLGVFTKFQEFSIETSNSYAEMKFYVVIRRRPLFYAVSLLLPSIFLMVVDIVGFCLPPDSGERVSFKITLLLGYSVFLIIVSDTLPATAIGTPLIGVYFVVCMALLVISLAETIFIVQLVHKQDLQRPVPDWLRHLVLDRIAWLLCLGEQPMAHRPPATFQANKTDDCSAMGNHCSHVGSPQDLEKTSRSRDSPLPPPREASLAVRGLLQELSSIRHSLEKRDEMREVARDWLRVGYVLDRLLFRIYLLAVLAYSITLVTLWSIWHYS
Assay: Displacement of [3H]granisetron from 5HT3 receptor in Wistar rat cortical membranes by liquid scintillation spectrometry
Type: cell membranes, Membrane

| Ki | SMILES |
| --- | --- |
| 28 nM | Cc1c(N2CCN(C)CC2)nc2ccccc2c1C(=O)NCCCCCCNC(=O)c1c(C)c(N2CCN(C)CC2)nc2ccccc12 |
| 2.7 nM | Cc1c(N2CCN(C)CC2)nc2ccccc2c1C(=O)NCCCCCCCNC(=O)c1c(C)c(N2CCN(C)CC2)nc2ccccc12 |
| 67 nM | Cc1c(N2CCN(C)CC2)nc2ccccc2c1C(=O)NCCCCCCCCNC(=O)c1c(C)c(N2CCN(C)CC2)nc2ccccc12 |
| 7.7 nM | Cc1c(N2CCN(C)CC2)nc2ccccc2c1C(=O)NCCOCCOCCNC(=O)c1c(C)c(N2CCN(C)CC2)nc2ccccc12 |
| 27 nM | Cc1c(N2CCN(C)CC2)nc2ccccc2c1C(=O)NCCOCCOCCOCCOCCOCCOCCOCCNC(=O)c1c(C)c(N2CCN(C)CC2)nc2ccccc12 |
| 15 nM | Cc1c(N2CCN(C)CC2)nc2ccccc2c1C(=O)NCCOCCOCCOCCOCCOCCOCCOCCOCCOCCNC(=O)c1c(C)c(N2CCN(C)CC2)nc2ccccc12 |
| 71 nM | Cc1c(N2CCN(C)CC2)nc2ccccc2c1C(=O)NCCCCCCNc1c2c(nc3ccccc13)CCCC2 |
| 69 nM | Cc1c(N2CCN(C)CC2)nc2ccccc2c1C(=O)NCCCCCCCCNc1c2c(nc3ccccc13)CCCC2 |
| 26 nM | Cc1c(N2CCN(C)CC2)nc2ccccc2c1C(=O)NCCCCCCCNC(=O)NC[13C](=O)O |
| 141 nM | Cc1c(N2CCN(C)CC2)nc2ccccc2c1C(=O)NCCOCCOCCNC(=O)NC[13C](=O)O |
| 178 nM | Cc1c(N2CCN(C)CC2)nc2ccccc2c1C(=O)NCCCCCCNC(=O)OC(C)(C)C |
| 18 nM | Cc1c(N2CCN(C)CC2)nc2ccccc2c1C(=O)NCCCCCCCNC(=O)OC(C)(C)C |
| 127 nM | Cc1c(N2CCN(C)CC2)nc2ccccc2c1C(=O)NCCCCCCCCNC(=O)OC(C)(C)C |
| 132 nM | Cc1c(N2CCN(C)CC2)nc2ccccc2c1C(=O)NCCOCCOCCNC(=O)OC(C)(C)C |

| SMILES | Ki |
| --- | --- |
| Cc1c(N2CCN(C)CC2)nc2ccccc2c1C(=O)NCCCCCCCNc1c2c(nc3ccccc13)CCCC2 | 5.6 nM |
| Cc1c(N2CCN(C)CC2)nc2ccccc2c1C(=O)NCCOCCOCCOCCOCCOCCOCCOCCNC(=O)NC[13C](=O)O | 106 nM |
| Cc1c(N2CCN(C)CC2)nc2ccccc2c1C(=O)NCCOCCOCCOCCOCCOCCOCCOCCOCCOCCNC(=O)NC[13C](=O)O | 154 nM |
| Cc1c(N2CCN(C)CC2)nc2ccccc2c1C(=O)NCCOCCOCCOCCOCCOCCOCCOCCNC(=O)OC(C)(C)C | 89 nM |
| Cc1c(N2CCN(C)CC2)nc2ccccc2c1C(=O)NCCOCCOCCOCCOCCOCCOCCOCCOCCOCCNC(=O)OC(C)(C)C | 71 nM |
